Here are results for twelve compounds from US7601716B2, “Pyridopyrazines and derivatives thereof as ALK and c-Met inhibitors” (Cephalon, Inc., priority 2006, dated 2009).

The IC50 is the concentration that inhibits the measured activity by half. In general, melting point refers to the temperature, or range, at which the solid turns liquid. Broadly, the inhibition is how much of the control response was suppressed.

For one data set, the target named is T1, NPM-ALK (Homo sapiens, UniProt Q9UM73).
T1 construct: a fusion protein consisting of nucleophosmin (NMP) and the intracellular domain of ALK; the other entry of the earlier key: NPM1 (P06748, Nucleophosmin)
The data set is described as follows: ALK Cellular Assay (phospho-NPM-ALK immunoblot / ALK tyrosine phosphorylation ELISA). Type of data set: cell-based. As to the method:
Immunoblotting of phospho-NPM-ALK and total NPM-ALK from cell lysates was carried out according to the protocols provided by the antibody suppliers. In brief, after treatment of Example compounds, cells were lysed in Frak lysis buffer [10 mM Tris, pH 7.5, 1% Triton X-100, 50 mM sodium chloride, 20 mM sodium fluoride, 2 mM sodium pyrophosphate, 0.1% BSA, plus freshly prepared 1 mM activated sodium vanadate, 1 mM dithiothreitol (#165680050, ARCOS Organics, Geel, Belgium), and 1 mM PMSF (#837091, Boehringer Mannheim Biochemicals, Indianapolis, Ind.), protease inhibitors cocktail III (#539134-1Set, Calbiochem, 1:100 dilution)]. After brief sonication, the lysates were cleared by centrifugation, mixed with sample buffer and subjected to SDS-PAGE. Following transfer to membranes, the membranes were blotted with either rabbit phospho-NPM-ALK(Y664) (Cat^#3341) or ALK antibody (Cat^#3342) from Cell Signaling Technology (Beverly, Mass.), and then the HRP-conjugated goat anti-rabbit antibodies (Santa Cruz, Calif.) after washed in TBS/0.2% Tween-20. The protein bands were visualized with ECL Western Blotting detection reagents (RPN2106, Amersham Biosciences, Buckinghamshire, UK) and quantitated with gel-pro analyzer 3.1 software.
To measure ALK tyrosine phosphorylation in cells with an ELISA assay, fluoronunc plates (Cat^#437796, Nalge Nunc, Rochester, N.Y.) were pre-coated with goat anti-mouse IgG, and incubated with the capture mouse ALK antibody (Cat^#35-4300, Zymed, Seattle, Wash.) diluted 1:1000 in Superblock (Pierce, Rockford, Ill.). Following blocking, cell lysates were added to plates and incubated overnight at 4° C. Plates were incubated with the detecting antibody, anti-phospho-ALK (Y664) (Cell Signaling Technology), diluted at 1:2000, followed by incubation with goat anti-rabbit-IgG alkaline phosphatase to amplify the detection. Wells were exposed to the fluorogenic substrate 4-MeUP (#3368-04-5, Calbiochem) and the signal quantified using a CytoFluor® (series 4000) Fluorescence Multi-Well Plate Reader (Applied Biosystems, Foster City, Calif.).

Data set [1] concerns the target baculovirus-expressed ALK (Homo sapiens, UniProt Q9UM73). Briefly: ALK Kinase Assay (ELISA/TRF, PLC-γ substrate). Further: 1 µM ATP (Km level). Format: biochemical. The conditions noted are these: read-out: ALK Kinase Inhibition (IC50). In short, it runs like this:
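Substrate phosphorylation by 30 ng/ml ALK (37° C, 15 min) on PLC-γ-coated wells is quantified via time-resolved europium fluorescence from an anti-phosphotyrosine antibody. Percent inhibition against log10 compound concentration yields IC50 by nonlinear regression.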

The target of data set [2] is T2, c-Met (cytoplasmic domain) (Homo sapiens, UniProt P08581).
T2 construct: Reactions were initiated with 30 ng/mL c-Met (cytoplasmic domain, Invitrogen Corporation #PV3143); purchased Invitrogen Corporation PV3143
The data set is described as follows: c-Met Kinase Assay (ELISA/TRF, PLC-γ substrate). Format: biochemical. The conditions noted are these: 3 μM ATP (Km level); read-out: c-Met Kinase Inhibition (IC50). The method in brief: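 Readout is TRF of europium anti-phosphotyrosine (PT66) bound to GST–PLC-γ substrate coated at 10 μg/mL, after a 15 min, 37 °C reaction started with 30 ng/mL c-Met cytoplasmic domain. Percent inhibition plotted against log compound concentration and fitted (variable slope) for IC50.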
On the technique in general: An ELISA detects its analyte on a solid surface through an enzyme-linked reagent.

Data set [3] has as its target T3, c-Met (phospho-c-Met) in HT29 cells (Homo sapiens, UniProt P08581).
T3 construct: endogenous in cells; host or cells: HT29, A549 (HGF-stimulated), GTL-16
Briefly: c-Met Cellular Activity/Autophosphorylation Assay, HT29 cells. Format: cell-based. The conditions noted are these: for inhibition at 1 µM: HT-29, 1 μM compound, read-out: c-Met autophosphorylation inhibition score, HT29 Cells (1 μM); for inhibition at 3 µM: HT-29, 3 μM compound, read-out: c-Met autophosphorylation inhibition score, HT29 Cells (3 μM). As to the method: (§1) HT29 and GTL-16 cells were serum starved for one hour in media containing 0.05% BSA and varying concentrations of Example compounds (1-10 μM). A549 cells were serum starved overnight in media containing 0.05% BSA then treated for one hour with Example compounds followed by a 15 minute stimulation with 50 ng/mL HGF (Peprotech, Rocky Hill, N.J.), respectively. Samples were resolved by electrophoresis on a 3-8% Tris-Acetate gel (40 ma/gel) and then transferred to a nitrocellulose membrane. Membranes were blocked for one hour at room temperature in Odyssey Blocking Buffer (Licor #927-40000) diluted 1:1 with 1×TBS. Membranes were then co-incubated overnight at 4° C. with primary antibodies [total Met (Cell Signaling, #3127) and Phospho-Met (Biosource, #44-888G) 1:1000 each in Odyssey Blocking Buffer diluted 1:1 with 1×TBS-T 0.05%]. The next day, membranes were washed and co-incubated with secondary antibodies [Goat anti mouse IRDye800 (Rockland, #610-132-121) and Goat anti rabbit Alexa fluor 700 (Molecular Probes, #A21038) 1:10,000] in Odyssey Blocking Buffer diluted 1:1 with 1×TBS-T 0.05% for one hour at room temperature protected from light. Blots were then washed and read on the Odyssey Infrared Imager. Total c-Met signal was visualized at 800 nm detection and phospho-c-Met signal was visualized at 700 nm detection.

Data set [4] deals with T4, c-Met (phospho-c-Met) in A549 cells (Homo sapiens, UniProt P08581).
T4 construct: endogenous in cells; host or cells: HT29, A549 (HGF-stimulated), GTL-16
The data set is described as follows: c-Met Cellular Activity/Autophosphorylation Assay, A549 cells (HGF stimulated). The conditions noted are these: 50 ng/mL HGF; for inhibition at 1 µM: 1 μM compound, read-out: c-Met autophosphorylation inhibition score, A549 Cells (1 μM); for inhibition at 3 µM: 3 μM compound, read-out: c-Met autophosphorylation inhibition score, A549 Cells (3 μM). Format: cell-based. As to the method:
as §1

T1 sequence (Q9UM73 with tags, fused parts or gaps): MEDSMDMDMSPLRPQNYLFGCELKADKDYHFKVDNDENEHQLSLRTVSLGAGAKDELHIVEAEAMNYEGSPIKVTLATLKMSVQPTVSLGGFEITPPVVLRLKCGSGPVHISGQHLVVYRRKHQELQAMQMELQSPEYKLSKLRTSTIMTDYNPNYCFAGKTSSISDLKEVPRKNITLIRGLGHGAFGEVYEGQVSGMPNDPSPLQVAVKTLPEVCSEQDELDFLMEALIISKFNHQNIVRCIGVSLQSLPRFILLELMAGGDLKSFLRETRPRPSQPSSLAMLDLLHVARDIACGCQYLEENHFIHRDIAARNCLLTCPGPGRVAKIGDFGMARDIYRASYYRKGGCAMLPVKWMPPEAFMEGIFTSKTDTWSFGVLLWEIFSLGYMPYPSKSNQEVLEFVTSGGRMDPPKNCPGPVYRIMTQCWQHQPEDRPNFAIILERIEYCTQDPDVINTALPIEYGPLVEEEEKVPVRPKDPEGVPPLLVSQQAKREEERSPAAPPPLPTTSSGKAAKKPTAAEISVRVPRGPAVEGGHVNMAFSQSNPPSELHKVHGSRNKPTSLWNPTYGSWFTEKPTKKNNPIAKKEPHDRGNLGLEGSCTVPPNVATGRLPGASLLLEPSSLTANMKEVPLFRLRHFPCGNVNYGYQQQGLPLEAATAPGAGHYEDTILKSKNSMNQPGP
Sequence of baculovirus-expressed ALK (Q9UM73 19-1620): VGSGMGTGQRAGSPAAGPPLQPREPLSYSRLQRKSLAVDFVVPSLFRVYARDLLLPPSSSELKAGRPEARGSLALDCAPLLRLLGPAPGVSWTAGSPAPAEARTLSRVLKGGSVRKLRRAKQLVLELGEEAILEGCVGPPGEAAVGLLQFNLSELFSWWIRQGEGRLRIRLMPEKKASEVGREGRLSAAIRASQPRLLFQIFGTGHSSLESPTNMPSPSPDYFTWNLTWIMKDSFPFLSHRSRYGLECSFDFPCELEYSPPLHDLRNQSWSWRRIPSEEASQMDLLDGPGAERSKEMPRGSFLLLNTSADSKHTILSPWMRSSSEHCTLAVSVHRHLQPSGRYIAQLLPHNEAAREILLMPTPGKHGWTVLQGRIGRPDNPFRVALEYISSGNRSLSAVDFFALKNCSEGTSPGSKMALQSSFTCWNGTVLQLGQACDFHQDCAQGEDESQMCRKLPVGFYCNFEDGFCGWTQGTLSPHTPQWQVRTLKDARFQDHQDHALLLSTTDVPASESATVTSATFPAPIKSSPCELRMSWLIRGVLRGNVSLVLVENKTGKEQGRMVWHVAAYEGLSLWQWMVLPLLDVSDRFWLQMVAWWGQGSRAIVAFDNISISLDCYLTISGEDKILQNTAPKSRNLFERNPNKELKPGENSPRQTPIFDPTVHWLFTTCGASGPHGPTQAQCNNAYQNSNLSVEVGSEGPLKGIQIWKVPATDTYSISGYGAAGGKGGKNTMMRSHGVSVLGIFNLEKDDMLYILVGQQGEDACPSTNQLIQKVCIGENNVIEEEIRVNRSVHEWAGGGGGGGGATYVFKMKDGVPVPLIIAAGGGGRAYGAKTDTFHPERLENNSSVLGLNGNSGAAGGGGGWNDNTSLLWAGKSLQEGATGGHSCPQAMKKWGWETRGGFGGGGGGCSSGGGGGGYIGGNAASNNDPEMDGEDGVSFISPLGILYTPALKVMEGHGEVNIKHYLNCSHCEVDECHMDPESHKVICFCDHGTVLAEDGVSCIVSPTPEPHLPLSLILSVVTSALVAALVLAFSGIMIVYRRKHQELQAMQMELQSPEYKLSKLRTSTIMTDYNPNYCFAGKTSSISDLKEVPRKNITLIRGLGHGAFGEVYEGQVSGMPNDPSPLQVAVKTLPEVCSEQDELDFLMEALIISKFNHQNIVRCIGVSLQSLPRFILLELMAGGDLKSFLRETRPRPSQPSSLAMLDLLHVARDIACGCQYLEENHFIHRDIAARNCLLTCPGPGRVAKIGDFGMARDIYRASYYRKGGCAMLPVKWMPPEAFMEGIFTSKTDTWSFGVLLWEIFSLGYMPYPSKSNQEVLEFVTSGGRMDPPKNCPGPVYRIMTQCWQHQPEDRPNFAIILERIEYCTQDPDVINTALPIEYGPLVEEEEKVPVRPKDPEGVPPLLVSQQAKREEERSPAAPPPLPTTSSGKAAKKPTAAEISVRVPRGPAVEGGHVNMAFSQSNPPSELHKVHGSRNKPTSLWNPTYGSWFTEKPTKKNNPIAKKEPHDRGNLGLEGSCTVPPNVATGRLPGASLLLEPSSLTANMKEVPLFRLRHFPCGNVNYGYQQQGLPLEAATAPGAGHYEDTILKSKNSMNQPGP
T4 sequence (P08581 25-1390): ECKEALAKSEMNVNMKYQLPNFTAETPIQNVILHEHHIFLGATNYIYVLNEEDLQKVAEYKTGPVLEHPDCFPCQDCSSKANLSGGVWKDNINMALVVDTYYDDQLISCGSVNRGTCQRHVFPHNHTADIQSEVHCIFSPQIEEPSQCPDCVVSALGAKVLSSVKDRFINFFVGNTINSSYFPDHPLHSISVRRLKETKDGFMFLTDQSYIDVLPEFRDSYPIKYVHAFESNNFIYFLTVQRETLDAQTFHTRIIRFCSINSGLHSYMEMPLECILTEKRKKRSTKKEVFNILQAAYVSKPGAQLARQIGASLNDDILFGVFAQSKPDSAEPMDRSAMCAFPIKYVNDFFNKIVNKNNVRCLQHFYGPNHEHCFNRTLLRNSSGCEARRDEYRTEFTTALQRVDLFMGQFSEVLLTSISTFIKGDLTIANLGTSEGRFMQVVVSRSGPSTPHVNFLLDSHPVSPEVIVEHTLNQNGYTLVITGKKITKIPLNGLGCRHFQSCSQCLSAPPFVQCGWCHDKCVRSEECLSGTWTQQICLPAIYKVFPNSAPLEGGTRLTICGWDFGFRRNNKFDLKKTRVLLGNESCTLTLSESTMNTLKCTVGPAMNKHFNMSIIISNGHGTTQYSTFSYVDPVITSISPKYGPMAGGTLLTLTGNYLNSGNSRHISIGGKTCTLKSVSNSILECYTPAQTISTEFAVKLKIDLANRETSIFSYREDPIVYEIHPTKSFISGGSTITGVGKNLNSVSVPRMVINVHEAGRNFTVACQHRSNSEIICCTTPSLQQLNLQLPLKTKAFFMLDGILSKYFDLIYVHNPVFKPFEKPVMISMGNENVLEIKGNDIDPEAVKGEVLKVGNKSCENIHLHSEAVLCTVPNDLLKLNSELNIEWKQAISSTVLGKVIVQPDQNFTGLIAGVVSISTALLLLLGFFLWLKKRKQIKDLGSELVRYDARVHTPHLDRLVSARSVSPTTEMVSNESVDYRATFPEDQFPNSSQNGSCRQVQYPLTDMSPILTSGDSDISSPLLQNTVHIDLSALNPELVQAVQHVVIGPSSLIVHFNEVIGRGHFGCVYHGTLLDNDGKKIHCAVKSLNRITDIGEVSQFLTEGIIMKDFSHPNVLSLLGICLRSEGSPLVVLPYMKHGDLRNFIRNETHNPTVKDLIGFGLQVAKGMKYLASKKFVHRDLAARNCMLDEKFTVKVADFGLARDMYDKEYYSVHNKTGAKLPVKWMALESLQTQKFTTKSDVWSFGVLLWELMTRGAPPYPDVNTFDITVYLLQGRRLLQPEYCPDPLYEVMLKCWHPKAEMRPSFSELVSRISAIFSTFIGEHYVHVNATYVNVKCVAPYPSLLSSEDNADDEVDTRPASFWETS
T3 sequence (P08581 25-1390): as above

As to `O=C(c1ccc(-c2cnc3c(c2)N(Cc2cc(F)ccc2F)CCN3)cc1)N1CCC[C@H]1CN1CCCC1` [Example 65, {4-[1-(2,5-Difluorobenzyl)-1,2,3,4-tetrahydropyrido[2,3-b]pyrazin-7-yl]phenyl}-((S)-2-((pyrrolidin-1-yl)methyl)pyrrolidin-1-yl)methanone], the melting point lay in the range of 143 to 144 °C. In addition, the half-maximal inhibitory concentration (IC50) at NPM-ALK was not above 250 nM. Further, in data set [1], the IC50 was less than 100 nM. Also, the half-maximal inhibitory concentration (IC50) in data set [2] lay in the range of 1000 to 10000 nM.

`O=C(c1ccc(-c2cnc3c(c2)N(Cc2cc(F)ccc2F)CCN3)cc1)N1CCC(N2CCCC2)CC1` [Example 66, {4-[1-(2,5-Difluorobenzyl)-1,2,3,4-tetrahydropyrido[2,3-b]pyrazin-7-yl]phenyl}-(4-(pyrrolidin-1-yl)piperidin-1-yl)methanone] yielded a melting point of 202 to 204 °C. In addition, at NPM-ALK, the IC50 is not above 250 nM. Besides, the concentration for half-maximal inhibition (IC50) in data set [1] was less than 100 nM. Moreover, the IC50 in data set [2] lay within 1000 to 10000 nM.

For `O=C(c1ccc(-c2cnc3c(c2)N(Cc2c(F)ccc(F)c2Cl)CCN3)cc1)N1CCC[C@H]1CN1CCCC1` [Example 100, {4-[1-(2-Chloro-3,6-difluorobenzyl)-1,2,3,4-tetrahydropyrido[2,3-b]pyrazin-7-yl]phenyl}-((S)-2-((pyrrolidin-1-yl)methyl)pyrrolidin-1-yl)methanone], the IC50 against NPM-ALK was not above 250 nM; in data set [1] it was less than 100 nM; in data set [2], 100 to 1000 nM. In addition, the inhibition at 1 µM in data set [3] and in data set [4] was 0 to 25% in each case. Also, the inhibition at 3 µM in data set [3] and in data set [4] was 0 to 25% throughout.

The compound `CN1CCN(c2ncc(-c3cnc4c(c3)N(Cc3c(F)ccc(F)c3Cl)CCN4)cn2)CC1` [Example 106, 1-(2-Chloro-3,6-difluorobenzyl)-7-[2-(4-methylpiperazin-1-yl)-pyrimidin-5-yl]-1,2,3,4-tetrahydropyrido[2,3-b]pyrazine] had a melting point of 194 to 195 °C. On NPM-ALK, this compound came in with an IC50 not above 250 nM. Also, the IC50 in data set [1] was less than 100 nM. Besides, the IC50 in data set [2] is 1000 to 10000 nM.

As to `O=C(c1ccc(-c2cnc3c(c2)N(Cc2cc(Cl)ccc2C(F)(F)F)CCN3)cc1)N1CCC(N2CCCC2)CC1` [Example 117, {4-[1-(5-Chloro-2-trifluoromethylbenzyl)-1,2,3,4-tetrahydropyrido[2,3-b]pyrazin-7-yl]phenyl}-(4-(pyrrolidin-1-yl)piperidin-1-yl)methanone], the concentration for half-maximal inhibition (IC50) against NPM-ALK is not above 250 nM; in data set [1], less than 100 nM; in data set [2], 1000 to 10000 nM. Also, the inhibition at 1 µM in data set [3] is 0 to 25%. The inhibition at 3 µM in data set [3] lay in the range of 0 to 25%.

The compound `O=C1CNc2ncc(-c3ccc(C(=O)N4CCC[C@H]4CN4CCCC4)cc3)cc2N1Cc1c(Cl)cccc1Cl` [Example 141, S-1-(2,6-Dichlorobenzyl)-7-[4-((2-pyrrolidin-1-yl)methylpyrrolidine-1-carbonyl)phenyl]-3,4-dihydro-1H-pyrido[2,3-b]pyrazin-2-one] yielded a melting point of 188 °C. Moreover, the inhibition at 1 µM on NPM-ALK (NPM-ALK, 1 μM compound, read-out: ALK Cellular Activity Inhibition Score at 1 μM) lay within 51 to 75%. In addition, the concentration for half-maximal inhibition (IC50) in data set [1] lay within 100 to 1000 nM. Moreover, in data set [2], the IC50 was in the range of 1000 to 10000 nM.

In the case of `O=C(c1ccc(-c2cnc3c(c2)N(Cc2cc(Cl)ccc2Cl)C(=O)CN3)cc1)N1CCC(N2CCCC2)CC1` [Example 156, 1-(2,5-Dichlorobenzyl)-7-[4-(4-(pyrrolidin-1-yl)piperidine-1-carbonyl)phenyl]-3,4-dihydro-1H-pyrido[2,3-b]pyrazin-2-one], the melting point is more than 200 °C. This compound also displayed a concentration for half-maximal inhibition (IC50) at NPM-ALK of 251 to 500 nM. Also, in data set [1], the half-inhibitory concentration (IC50) is less than 100 nM. For the same compound, in data set [2], the IC50 lay within 100 to 1000 nM.

Consider `O=C(c1ccc(-c2cnc3c(c2)N(Cc2cc(Cl)ccc2Cl)CCN3)cc1)N1CCC[C@H]1CN1CCCC1` [Example 159, S-{4-[1-(2,5-Dichlorobenzyl)-1,2,3,4-tetrahydropyrido[2,3-b]pyrazin-7-yl]phenyl}-{2-[(pyrrolidin-1-yl)methyl]pyrrolidin-1-yl}methanone], for which the IC50 on NPM-ALK is 251 to 500 nM; in data set [1], less than 100 nM; in data set [2] it was 1000 to 10000 nM. Further, the inhibition at 1 µM in data set [3] and in data set [4] was 0 to 25% in each case. In addition, the inhibition at 3 µM in data set [3] and in data set [4] was 0 to 25% each time.

In the case of `CN1CCN(c2cc(-c3cnc4c(c3)N(Cc3c(F)ccc(F)c3Cl)CCN4)ccn2)CC1` [Example 190, 1-(2-Chloro-3,6-difluorobenzyl)-7-[2-(4-methylpiperazin-1-yl)pyridin-4-yl]-1,2,3,4-tetrahydropyrido[2,3-b]pyrazine], the IC50 against NPM-ALK was 501 to 750 nM; in data set [1] it was less than 100 nM; in data set [2], 100 to 1000 nM. Moreover, the inhibition at 1 µM in data set [4] was in the range of 0 to 25%. Further, the inhibition at 3 µM in data set [4] was in the range of 0 to 25%.

`FC(F)(F)c1ccc(Cl)cc1CN1CCNc2ncc(-c3ccnc(N4CCNCC4)c3)cc21` [Example 198, 1-[5-Chloro-2-(trifluoromethyl)benzyl]-7-(2-piperazin-1-yl-pyridin-4-yl)-1,2,3,4-tetrahydro-pyrido[2,3-b]pyrazine] yielded a melting point of 189 °C. In addition, the IC50 against NPM-ALK is not above 250 nM. In addition, the IC50 in data set [1] was less than 100 nM. Also, in data set [2], the 50% inhibitory concentration (IC50) is 100 to 1000 nM.

In turn, `CC(=O)N1CCN(c2cc(-c3cnc4c(c3)N(Cc3cc(Cl)ccc3C(F)(F)F)CCN4)ccn2)CC1` [Example 199, 1-[4-(4-{1-[5-Chloro-2-(trifluoromethyl)benzyl]-1,2,3,4-tetrahydro-pyrido[2,3-b]pyrazin-7-yl}pyridin-2-yl)piperazin-1-yl]ethanone] had a melting point of 241 °C. The IC50 against NPM-ALK is not above 250 nM. The 50% inhibitory concentration (IC50) in data set [1] is less than 100 nM. Also, the 50% inhibitory concentration (IC50) in data set [2] fell in the range of 1000 to 10000 nM.

For `FC(F)(F)c1ccc(Cl)cc1CN1CCNc2ncc(-c3cn[nH]c3)cc21` [Example 200, 1-[5-Chloro-2-(trifluoromethyl)benzyl]-7-(1H-pyrazol-4-yl)-1,2,3,4-tetrahydro-pyrido[2,3-b]pyrazine], the melting point was 271 °C. In addition, on NPM-ALK, the half-inhibitory concentration (IC50) was 751 to 1000 nM. Also, in data set [1], the half-inhibitory concentration (IC50) lay in the range of 100 to 1000 nM. Also, in data set [2], the IC50 is 1000 to 10000 nM.
